Data: patent US11236120B2, “Azithromycin derivatives with epithelial barrier enhancement properties” (EpiEndo Pharmaceuticals ehf, priority 2015, dated 2022)
≈ marks a conversion by molar mass, not a printed value. Entries after “also recorded” stand apart in the source; their conditions may differ. Blank lines part the entries; values can stand above or below the molecule they belong to.

Key:
[1] = test system: barrier integrity in the lungs of mice under sulphur dioxide insult; experiment: Barrier integrity enhancement in the lung: HSA leakage into BAL after sulphur dioxide insult; type: in vivo
Procedure: The effect of compounds of the invention on maintenance of barrier integrity in the lungs of mice under sulphur dioxide insult was investigated.
1. 15 female mice were randomised into 3 groups of 5 mice. The three groups were: • a) Control group • b) Azithromycin treatment group • c) Investigational compound treatment group
2. The mice were pre-treated for three days with: • a) Placebo (Phosphate buffered saline—PBS) given at a dose of 10 mg/kg in an intravenous injection of 100 μl three times per week. • b) Azithromycin: given at a dose of 10 mg/kg in an intravenous injection of 100 μl three times per week. • c) The compound of Example 2: given at a dose of 10 mg/kg in an intravenous injection of 100 μl three times per week.
3. One mouse in each group was set to one side as a control. Four mice were then exposed to sulphur dioxide gas at a concentration of 200 ppm in air for a period of 60 minutes. The mice were in a cage that was inserted into a 45 L treatment box with a removable lid, a gas feed line and a gas exhaust vent. […] The gas was premixed from bottled air and bottled 200 ppm SO2 in a first box and then fed into the treatment box. The level of SO2 being fed into the treatment box can be varied by adjusting the relative flow of air and SO2 from the two source cylinders. As the sulphur dioxide concentration in this experiment was 200 ppm, it was used neat, with no additional air being mixed with it. The mice had access to food and water for the duration of the treatment.
4. 24 hours after the end of the treatment, 1 mg of human serum albumin (HSA) in 100 μl saline was injected into the tail vein of each mouse, and fluorescent dextrans (FDs) were injected into the airways. The mice were then kept sedated for 90 minutes.
5. After 90 minutes, the mice were sacrificed via exsanguination. Plasma and bronchoalveolar lavage (BAL) were collected and the lungs were processed for paraffin embedding.
6. The level of HSA in the BAL was quantified by ELISA. The ELISA test used was the one commercially available from abcam (Human Serum Albumin kit ab179887). In line with the kit manufacturer's instructions, absorbance at […] was measured. Fluorescent dextrans are quantified using a fluorescent plate reader.
The level of HSA that leaks into the lungs, as found in the BAL, is a measure of the integrity of the lung epithelial barrier.
In the placebo group, there were experimental difficulties with two of the four mice; in the Azithromycin group, there were experimental difficulties with one of the four mice; and in the investigational compound group, there were experimental difficulties with two of the four mice. Therefore, results were obtained from two mice in each of the placebo and investigational compound groups, and from three mice in the Azithromycin group.

[2] = Stability in human plasma; type: in vitro ADME; conditions: room temperature
Procedure: Stability in Mouse and Human Plasma
The stability of the compounds in mouse and human plasma was performed using protein precipitation as sample clean-up and HPLC-MS detection. The plasma stability studies of the compounds was performed at room temperature for up to 4 hours. A stock solution of […] in DMSO was prepared for each compound. For the plasma stability samples, 100 μL of the stock solution was diluted with 3.9 mL of either mouse or human plasma to a final concentration of […]. The plasma was left to equilibrate for 10 minutes at room temperature before the first analysis. For each analyzed time point ([…]) a 100 μL aliquot of the plasma was removed and protein precipitation (PPT) was performed on the aliquot by adding 900 μL of (ACN:DMSO) 95:5. The precipitated sample was shaken for 60 seconds and then centrifuged. The supernatant was transferred to an HPLC vial and analyzed using HPLC-MS. The chromatographic signal area of the samples at the different time points were then compared against each other, by setting the initial analysis at t=0 min as 100% and then calculating the %-value for each subsequent time point.
(§1) The chromatographic separation was performed on a Waters HPLC-MS system using a 50×2.1 mm×Bridge C18 column and a gradient elution of Water with 0.1% formic acid and acetonitrile with 0.1% formic acid. The analytes were analyzed in positive electro-spray mode using the (M+H)^+ in single ion recording.

[3] = Solubility in 10 mM phosphate buffer (pH 7.4); type: physicochemical; conditions: pH 7.4, aqueous buffer, kinetic from dmso stock, 60 minutes at room temperature, filtered, read-out: MTS Solubility in Buffer (pH 7.4)
Procedure: Solubility in 10 mM Phosphate Buffer (pH 7.4)
The solubility sample testing of the compounds was performed by in phosphate buffer at pH 7.4 and using HPLC-MS detection. A stock solution of […] in DMSO was prepared for each compound. For the solubility test sample, 100 μL of the stock solution was diluted with 3.9 mL of a 10 mM phosphate buffer at […] to a final concentration of […]. The buffer solution was left to stand for 60 minutes at room temperature and then filtered. The filtrate was analyzed against two calibration points of the same analyte prepared at […] using HPLC-MS. These calibration points were prepared from the same stock solution as the solubility sample by diluting it with DMSO:H2O (1:1) 1:40 and then again 1:10. The chromatographic signal area of the analyte in the solubility sample was then compared to the chromatographic signal area of the two calibration samples.
as §1

[4] = test system: epithelial cells in vitro ALI culture; conditions: cited from earlier work
[5] = test system: Mycobacterium avium complex (MAC); experiment: Assay 2: STC colorimetric microplate assay, comparison over the Mycobacteria studied; type: cell-based; conditions: all four strains of M. avium and M. intracellulare

- Degradation in Human Plasma at RT [2]: Stable
- solubility at 60 min [3]: 3.62 µM (≈ 2.52 µg/mL)
Molecule: CC[C@H]1OC(=O)[C@H](C)[C@@H](O)[C@H](C)[C@@H](O[C@@H]2O[C@H](C)C[C@H](N(C)C)[C@H]2OC(=O)c2ccccc2)[C@](C)(O)C[C@@H](C)CN(C)[C@H](C)[C@@H](O)[C@]1(C)O [Example 2]
- HSA level - absorbance at 600 nm ([1]; HSA in BAL by ELISA, mice, 10 mg/kg intravenous, 200 ppm SO2 for 60 minutes): 0.373 ± 0.037
- leakage of HSA into the lung following SO2 insult ([1]; compared with control, FIG. 1): reduced compared with the control; also recorded: reduced compared with a control
- HSA level - absorbance at 600 nm relative to control ([1]; relative to PBS control, mice, 10 mg/kg intravenous, 200 ppm SO2 for 60 minutes): 0.640 ± 0.058

Molecule: CC[C@H]1OC(=O)[C@H](C)[C@@H](O[C@H]2C[C@@](C)(OC)[C@@H](O)[C@H](C)O2)[C@H](C)[C@@H](O[C@@H]2O[C@H](C)C[C@H](N(C)C)[C@H]2O)[C@](C)(O)C[C@@H](C)C(=O)[C@H](C)[C@@H](O)[C@]1(C)O [Erythromycin]
- effect on transepithelial resistance (TER) and cellular processing of tight junctions [4]: not to exhibit similar effects

Molecule: penicillin
- effect on transepithelial resistance (TER) and cellular processing of tight junctions [4]: not to exhibit similar effects

Molecule: CC[C@H]1OC(=O)[C@H](C)[C@@H](O[C@H]2C[C@@](C)(OC)[C@@H](O)[C@H](C)O2)[C@H](C)[C@@H](O[C@@H]2O[C@H](C)C[C@H](N(C)C)[C@H]2O)[C@](C)(OC)C[C@@H](C)C(=O)[C@H](C)[C@@H](O)[C@]1(C)O [Clarithromycin]
- sensitivity of the MAC strains used [5]: sensitive
